{
  "source": "paper PMC6270837",
  "about": "“Preparation and Biological Properties of Ring-Substituted Naphthalene-1-Carboxanilides” (Molecules, 2014)",
  "key": {"[1]": {"experiment": "Lipophilicity determination by RP-HPLC (capacity factor, log k)", "format": "physicochemical", "settings": "end-capped C18, isocratic MeOH 60%/H2O 40%", "experimental": "Lipophilicity is a property that has a major effect on bioavailability, biotransformation as well as pharmacological activity, because drugs cross biological membranes through passive transport, which strongly depends on their lipophilicity. Lipophilicity of the studied compounds was determined by RP‑HPLC as capacity factor logarithm (log k). The procedure was performed under isocratic conditions with methanol as an organic modifier in the mobile phase using an end-capped non-polar C18 stationary RP column. The results of ring-substituted naphthalene-1-carboxanilides 1–8c are shown in Table 1 and illustrated in Figure 1. […] Lipophilicity was also calculated as log P using ACD/Percepta ver. 2012 (Advanced Chemistry Development, Inc., Toronto, ON, Canada).\nA HPLC system Agilent 1200 equipped with DAD detector (Agilent, USA) was used. A chromatographic column Symmetry® C18 5 μm, 4.6 × 250 mm, Part No. WAT054275 (Waters Corp., Milford, MA, USA) was used. The HPLC separation process was monitored and evaluated by EZChrom Elite software ver. 3.3.2 (Agilent, USA). Isocratic elution by a mixture of MeOH p.a. (60%) and H2O-HPLC Mili-Q grade (40%) as a mobile phase was used. The total flow of the column was 1.0 mL/min, injection 20 μL, column temperature 40 °C, and sample temperature 10 °C. The detection wavelength 210 nm was chosen. The KI methanolic solution was used for the dead time (tD) determination. Retention times (tR) were measured in minutes. The capacity factors k were calculated according to formula k = (tR − tD)/tD, where tR is the retention time of the solute, whereas tD denotes the dead time obtained using an unretained analyte. Log k, calculated from the capacity factor k, is used as the lipophilicity index converted to log P scale."}, "[2]": {"test_system": "M. avium subsp. paratuberculosis", "experiment": "MTT assay on mycobacteria", "format": "cell-based, Mycobacterium avium subsp. paratuberculosis", "settings": "lowest tested concentration 8 µg/mL (ca. 30 µmol/L), four hours of incubation", "experimental": "Additionally, a standard MTT assay was performed on these same compounds. The MTT assay is a well-characterized method of assessing cell growth through measurement of respiration.\nFor the MTT assay, the same 96-well plate set up and incubation conditions listed above were used. After the incubation period, a 10% addition of MTT reagent was mixed into each well and incubated at 37 °C for 4 h. The reagent and media were then aspirated from the wells to which 50 µL DMSO was then added and plates were read at 550 nm."}, "[3]": {"test_system": "human monocytic leukemia THP-1 cell line", "experiment": "In vitro cytotoxicity assay (LDH)", "experimental": "Human monocytic leukemia THP-1 cells were obtained from the European Collection of Cell Cultures (ECACC, Salisbury, UK; Methods of characterization: DNA Fingerprinting (Multilocus probes) and isoenzyme analysis). These cells were routinely cultured in RPMI 1640 (Lonza, Verviers, Belgium) medium supplemented with 10% fetal bovine serum (FBS, Sigma-Aldrich, St. Louis, MO, USA), 2% L-glutamine, 1% penicillin and streptomycin (Lonza) at 37 °C with 5% CO2. Cells were passaged at approximately one-week intervals. Cells were routinely tested for the absence of mycoplasma (Hoechst 33258 staining method). The tested compounds were dissolved in DMSO (Sigma-Aldrich) and added in five increasing concentrations to the cell suspension in the culture medium. The maximum concentration of DMSO in the assays never exceeded 0.1%. Subsequently, the cells were incubated for 24 h at 37 °C with 5% CO2 to various compound concentrations ranging from […] in RPMI 1640 medium. Cell toxicity was determined using a Cytotoxicity Detection Kit^PLUS Lactate dehydrogenase (LDH) assay kit (Roche Diagnostics, Mannheim, Germany) according to the manufacturer’s instructions, as described previously. For LDH assays, cells were seeded into 96-well plates (5 × 10^4 cells/well in 100 μL culture medium) in triplicate in serum-free RPMI 1640 medium, and measurements at 492 nm wavelength (Synergy 2 Multi-Mode Microplate Reader, BioTek, Winooski, VT, USA) were taken 24 h after the treatment with tested compounds. The median lethal dose values, LD50, were deduced through the production of a dose-response curve. All data were evaluated using GraphPad Prism 5.00 software (GraphPad Software, San Diego, CA, USA).\nLDH Test Principle: The LDH activity is determined by a coupled enzymatic reaction, whereby the tetrazolium salt INT is reduced to formazan. An increase in the amount of dead or plasma membrane damaged cells results in an increase of LDH enzyme activity in the culture supernatant. This increase in the amount of enzyme activity in the supernatant directly correlates to the amount of formazan formed during a limited time period."}, "[4]": {"test_system": "photosynthetic electron transport (PET) in isolated spinach chloroplasts", "experiment": "Inhibition of photosynthetic electron transport (PET) in isolated spinach chloroplasts", "format": "biochemical, Spinacia oleracea L.", "settings": "DCPIP photoreduction", "experimental": "The PET-inhibiting activity was expressed by IC50 value, i.e., compound concentration in mol/L causing 50% inhibition of PET.\n(§1) Chloroplasts were prepared from spinach (Spinacia oleracea L.) according to Masarovicova and Kralova. The inhibition of photosynthetic electron transport (PET) in isolated spinach chloroplasts was determined spectrophotometrically (Genesys 6, Thermo Scientific, USA), using an artificial electron acceptor 2,6-dichlorophenol-indophenol (DCIPP) according to Kralova et al., and the rate of photosynthetic electron transport was monitored as a photoreduction of DCPIP. The measurements were carried out in phosphate buffer (0.02 mol/L, pH 7.2) containing sucrose (0.4 mol/L), MgCl2 (0.005 mol/L) and NaCl (0.015 mol/L). The chlorophyll content was 30 mg/L in these experiments and the samples were irradiated (~100 W/m^2 with 10 cm distance) with a halogen lamp (250 W) using a 4 cm water filter to prevent warming of the samples (suspension temperature 22 °C). The studied compounds were dissolved in DMSO due to their limited water solubility. […] The inhibitory efficiency of the studied compounds was expressed by IC50 values, i.e., by molar concentration of the compounds causing 50% decrease in the oxygen evolution rate relative to the untreated control."}, "[5]": {"experiment": "Solubility in PET tested medium", "format": "physicochemical", "settings": "PET assay medium, phosphate buffer pH 7.2, DMSO up to 4%", "experimental": "as §1"}, "physchem": {"experiment": "physchem", "settings": "aqueous buffer, kinetic from dmso stock"}},
  "note": "Entries after “also recorded” stand apart in the source; their conditions may differ.",
  "data": [
    {"smiles": "Cc1ccc(NC(=O)c2cccc3ccccc23)cc1", "note": "[Compound 3c, N-(4-Methylphenyl)naphthalene-1-carboxamide]", "values": [
      {"measurement": "log k", "setting": "[1]", "value": 0.7551},
      {"measurement": "reduction in activity (MTT)", "setting": "[2]", "value": "more than 80%"},
      {"measurement": "LD50", "setting": "[3]; human, 24 h", "value": ">30", "unit": "µmol/L"},
      {"measurement": "lethal effect / toxicity on THP-1 cells", "setting": "[3]; treatment with 30 μmol/L", "value": "did not lead to significant lethal effect; also recorded: insignificant toxicity"},
      {"measurement": "IC50", "setting": "[4]", "value": 381, "unit": "µM"},
      {"measurement": "solubility in tested medium (PET experiments)", "setting": "[5]", "value": "limited solubility"},
      {"measurement": "solubility", "setting": "physchem", "value": "≤ 30", "unit": "µM"}
    ]}
  ]
}
